System: Dopaminneurone der SNC
Assay: Prevention of MPP^+-induced degeneration of dopamine neurons after local co-injection into the substantia nigra pars compacta; count of intact neurons in cresyl violet stained brain sections
Assay type: in vivo, Ratten
Conditions: for Anzahl intakter Neurone (Mittelwert ± S.E.M.): right SNC
From the text: Zum Nachweis der protectiven Wirkung der erfindungsgemäßen Verbindungen wurde der toxische Metabolit MPP^+ lokal in die Substantia nigra von Ratten injiziert und somit eine rasch fortschreitende Degeneration der Dopaminneuronen bewirkt.

For NC(CCCCCP(=O)(O)O)C(=O)O (stereo not drawn) [AP-7, 2-Amino-7-phosphonoheptansäure], the “Anzahl intakter Neurone (Mittelwert ± S.E.M.)” value (from here on “Anzahl intakter Neurone”) (AP-7 0.025 µmol co-injected with MPP^+ (0.025 µmol pro Seite), 4 h after injection, n=3) was 26 ± 2, the “Anzahl intakter Neurone” value (AP-7 0.1 µmol co-injected with MPP^+ (0.025 µmol pro Seite), 4 h after injection, n=4) was 91 ± 24 x and the “Anzahl intakter Neurone” value (AP-7 0.25 µmol co-injected with MPP^+ (0.025 µmol pro Seite), 4 h after injection, n=9) was 128 ± 10 xxx. For the same compound, the “Anzahl intakter Neurone” value (AP-7 0.25 µmol co-injected with MPP^+ (0.025 µmol pro Seite), 8 h after injection, n=4) was 79 ± 9 xx, the “Anzahl intakter Neurone” value (AP-7 0.25 µmol co-injected with MPP^+ (0.025 µmol pro Seite), 24 h after injection, n=4) was 66 ± 16 x and the “neurodegenerativer Effekt von MPP^+ auf die Dopaminneuronen” value (simultaneous local administration with MPP^+ into the substantia nigra of rats, result in words) was “nahezu vollständig auf”.
